This passage reports inhibition and IC50 results from patent US9029389B2 (Institut Pasteur Korea, priority 2011, dated 2015).

The target of the first assay is T1, Human 5-lipoxygenase (Homo sapiens, UniProt P09917).
T1 construct: purchased Cayman 60402; host or cells: insect cells
T1 sequence (P09917 1-674): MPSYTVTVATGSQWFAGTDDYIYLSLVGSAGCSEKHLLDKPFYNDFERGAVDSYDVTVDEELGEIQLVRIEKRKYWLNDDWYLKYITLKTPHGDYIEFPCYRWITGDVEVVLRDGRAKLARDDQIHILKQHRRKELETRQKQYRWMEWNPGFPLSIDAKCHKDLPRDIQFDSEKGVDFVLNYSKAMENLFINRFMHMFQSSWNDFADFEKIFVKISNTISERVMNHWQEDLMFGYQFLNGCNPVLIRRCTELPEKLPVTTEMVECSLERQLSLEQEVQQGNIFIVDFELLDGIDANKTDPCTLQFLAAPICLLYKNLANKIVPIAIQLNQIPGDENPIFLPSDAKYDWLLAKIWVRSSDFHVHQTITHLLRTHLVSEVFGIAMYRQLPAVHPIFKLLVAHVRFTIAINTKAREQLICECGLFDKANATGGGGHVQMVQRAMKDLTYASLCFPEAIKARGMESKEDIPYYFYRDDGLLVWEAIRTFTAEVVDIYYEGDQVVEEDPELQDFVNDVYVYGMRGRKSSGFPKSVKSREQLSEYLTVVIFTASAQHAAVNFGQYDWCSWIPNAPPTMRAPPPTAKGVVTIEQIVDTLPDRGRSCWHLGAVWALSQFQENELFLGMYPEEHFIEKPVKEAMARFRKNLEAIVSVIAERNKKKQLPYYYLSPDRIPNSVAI
In words: Activity of compounds against 5-LO enzyme (LTB4 measurement and/or fluorescence method). Format: biochemical. To be noted: 5-LO, single concentration of 10 uM in duplicate. The essentials: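 Insect-cell human 5-LO preincubated 15 min at RT with compound (pH 7.4, 2 mM CaCl2, 0.1 mM ATP, 1% DMSO), then 3 uM arachidonic acid for 5 min at 37 °C; LTB4 quantified by EIA and/or LC/MS/MS. Alternatively, fluorescence of 5-HpETE via H2DCFDA, 100 uM ATP, 3 uM arachidonic acid, 5 min, RT; single 10 uM screen then 6- or 11-point IC50.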
`CCc1nc2ccc(Cl)cn2c1CN1CCC(CCc2ccc(F)cc2)CC1` [compound 349, 6-chloro-2-ethyl-3-((4-(4-fluorophenethyl)piperidin-1-yl)methyl)imidazo[1,2-a]pyridine]: the inhibition – broadly, the change of the read-out against control, counted positive when it falls – at 10 µM lay in the range of 40 to 69%.

For the compound `Cc1nc2ccccn2c1C(=O)Nc1ccc(Oc2ccccc2)cc1` [compound 13, 2-Methyl-N-(4-phenoxyphenyl)imidazo[1,2-a]pyridine-3-carboxamide], the inhibition at 10 µM is less than 40%.

Turning to `CCc1nc2cc(Cl)ccn2c1C(=O)NCc1ccc(N2CCC(Oc3ccc(Cl)cc3)CC2)cc1` [compound 167, 7-Chloro-N-(4-(4-(4-chlorophenoxy)piperidin-1-yl)benzyl)-2-ethylimidazo[1,2-a]pyridine-3-carboxamide], the inhibition at 10 µM was 40 to 69%.

`CCc1nc2ccccn2c1C(=O)NCc1ccc(OC(C)C)cc1` [compound 53, 2-Ethyl-N-(4-isopropoxybenzyl)imidazo[1,2-a]pyridine-3-carboxamide] displayed an inhibition at 10 µM of less than 40%.

The compound `CCOC(=O)C1CCN(c2ccc(CNC(=O)c3c(CC)nc4ccc(Cl)cn34)cc2)CC1` [compound 269, Ethyl1-(4-((6-chloro-2-ethylimidazo[1,2-a]pyridine-3-carboxamido)methyl)phenyl)piperidine-4-carboxylate] showed an inhibition at 10 µM of 40 to 69%.

Regarding `CCc1nc2cc(Cl)ccn2c1C(=O)NCc1ccc(N2CC3CC=CCC3C2)cc1` (stereo not drawn) [compound 202, 7-Chloro-N-(4-(3a,4-dihydro-1H-isoindol-2(3H7H,7aH)-yl)benzyl)-2-ethylimidazo[1,2-a]pyridine-3-carboxamide], the inhibition at 10 µM lay within 40 to 69%.

In turn, `COC(=O)c1ccc(CNC(=O)c2c(C)nc3ccccn23)cc1` [compound 25, Methyl 4-((2-methylimidazo[1,2-a]pyridine-3-carboxamido)methyl)benzoate] had an inhibition at 10 µM of less than 40%.

With `CCc1nc2cc(Cl)ccn2c1C(=O)NCc1ccc(C(C)(C)C)cc1` [compound 92, N-(4-tert-Butylbenzyl)-7-chloro-2-ethylimidazo[1,2-a]pyridine-3-carboxamide], the inhibition at 10 µM was in the range of 40 to 69%.

`CCc1nc2cc(Cl)ccn2c1C(=O)NCc1ccc(-c2ccccc2C#N)cc1` [compound 106, 7-Chloro-N-((2′-cyanobiphenyl-4-yl)methyl)-2-ethylimidazo[1,2-a]pyridine-3-carboxamide] came in with an inhibition at 10 µM of 40 to 69%.

`CCc1nc2cc(Cl)ccn2c1C(=O)NCc1ccc(Nc2ccc(OC(F)(F)F)cc2)cc1` [compound 175, 7-Chloro-2-ethyl-N-(4-(4-(trifluoromethoxy)phenylamino)benzyl)imidazo[1,2-a]pyridine-3-carboxamide] yielded an inhibition at 10 µM greater than 69%.

The compound `Cc1nc2ccccn2c1C(=O)NCc1cccnc1` [compound 5, 2-Methyl-N-(pyridin-3-ylmethyl)imidazo[1,2-a]pyridine-3-carboxamide] came in with an inhibition at 10 µM of less than 40%.

Turning to `CCc1nc2ccc(F)cn2c1C(=O)NCc1ccc(OCc2ccc(OC(F)(F)F)cc2)cc1` [compound 205, 2-Ethyl-6-fluoro-N-(4-(4-(trifluoromethoxy)benzyloxy)benzyl)imidazo[1,2-a]pyridine-3-carboxamide], the inhibition at 10 µM is 40 to 69%.

`Cc1nc2ccccn2c1C(=O)NCc1ccc(Oc2ccccc2)cc1` [compound 6, 2-Methyl-N-(4-phenoxybenzyl)imidazo[1,2-a]pyridine-3-carboxamide]: the inhibition at 10 µM was less than 40%.

For the compound `CCc1nc2ccc(Cl)cn2c1C(=O)NCc1nc2ccc(Cl)cc2[nH]1` [compound 365, 6-chloro-N-((6-chloro-1H-benzo[d]imidazol-2-yl)methyl)-2-ethylimidazo[1,2-a]pyridine-3-carboxamide], the inhibition at 10 µM was less than 40%.

As to `CCc1nc2ccc(Br)cn2c1C(=O)NCc1ccc(OC(F)(F)F)cc1` [compound 176, 6-Bromo-2-ethyl-N-(4-(trifluoromethoxy)benzyl)imidazo[1,2-a]pyridine-3-carboxamide], the inhibition at 10 µM was in the range of 40 to 69%.

As to `CCc1nc2cc(Cl)ccn2c1C(=O)NCc1ccc2oc(-c3ccc(F)cc3)nc2c1` [compound 259, 7-Chloro-2-ethyl-N-((2-(4-fluorophenyl)benzo[d]oxazol-5-yl)methyl)imidazo[1,2-a]pyridine-3-carboxamide], the inhibition at 10 µM is less than 40%.

As to `Cc1nc2ccccn2c1C(=O)NCc1ccc(-c2ccccc2)cc1` [compound 20, N-(Biphenyl-4-ylmethyl)-2-methylimidazo[1,2-a]pyridine-3-carboxamide], the inhibition at 10 µM lay within 40 to 69%.

Compound `CCc1nc2cc(Cl)ccn2c1C(=O)NCc1ccc(N2CCC(COC(F)F)CC2)cc1` [compound 295, 7-Chloro-N-(4-(4-((difluoromethoxy)methyl)piperidin-1-yl)benzyl)-2-ethylimidazo[1,2-a]pyridine-3-carboxamide] showed an inhibition at 10 µM greater than 69%.

As to `CCc1nc2cc(Br)ccn2c1C(=O)NCc1ccc(OC(F)(F)F)cc1` [compound 281, 7-Bromo-2-ethyl-N-(4-(trifluoromethoxy)benzyl)imidazo[1,2-a]pyridine-3-carboxamide], the inhibition at 10 µM is 40 to 69%.

Take `CCc1nc2ccc(Cl)cn2c1C(=O)NCc1ccc(OC(C)C)cc1` [compound 65]: the inhibition at 10 µM was less than 40%.

`CCc1nc2cc(Cl)ccn2c1C(=O)NCc1ccc(N2CCC(COC3CCCC3)CC2)cc1` [compound 286, 7-Chloro-N-(4-(4-(cyclopentyloxymethyl)piperidin-1-yl)benzyl)-2-ethylimidazo[1,2-a]pyridine-3-carboxamide] gave an inhibition at 10 µM of 40 to 69%.

For the compound `Cc1nc2ccc(C#N)cn2c1C(=O)NCc1ccccc1` [compound 30, N-Benzyl-6-cyano-2-methylimidazo[1,2-a]pyridine-3-carboxamide], the inhibition at 10 µM was less than 40%.

The compound `Cc1nc2cc(Cl)ccn2c1C(=O)NCc1ccc(-c2ccccc2)cc1` [compound 44, N-(Biphenyl-4-ylmethyl)-7-chloro-2-methylimidazo[2-a]pyridine-3-carboxamide] yielded an inhibition at 10 µM of less than 40%.

For the compound `CCc1nc2cc(Cl)ccn2c1C(=O)NCc1ccc2ccccc2c1` [compound 90, 7-Chloro-2-ethyl-N-(naphthalen-2-ylmethyl)imidazo[1,2-a]pyridine-3-carboxamide], the inhibition at 10 µM lay in the range of 40 to 69%.

On to `Cc1nc2ccccn2c1C(=O)NCCc1ccccc1` [compound 12, 2-Methyl-N-phenethylimidazo[1,2-a]pyridine-3-carboxamide], for which the inhibition at 10 µM is less than 40%.

On to `CCc1nc2cc(Cl)ccn2c1C(=O)NCc1ccc(N2CCN(C)CC2)cc1` [compound 108, 7-Chloro-2-ethyl-N-(4-(4-methylpiperazin-1-yl)benzyl)imidazo[1,2-a]pyridine-3-carboxamide], for which the inhibition at 10 µM is less than 40%.

`CCc1nc2ccc(Cl)cn2c1CNC1CCN(Cc2ccccc2)C1` (stereo not drawn) [compound 345, 1-Benzyl-N-((6-chloro-2-ethylimidazo[1,2-a]pyridin-3-yl)methyl)pyrrolidin-3-amine]: the inhibition at 10 µM is less than 40%.

The same assay, now with this note: 6 or 11 point dose response in duplicate.
`CCc1nc2ccc(Cl)cn2c1CNc1ccc(Oc2ccc(OC(F)(F)F)cc2)cc1` [compound 394, N-((6-chloro-2-ethylimidazo[1,2-a]pyridin-3-yl)methyl)-4-(4-(trifluoromethoxy)-phenoxy)aniline]: the concentration for half-maximal inhibition (IC50) (commonly the concentration needed to halve the response being measured) is less than 1 µM.

The compound `CCc1nc2cc(Cl)ccn2c1C(=O)NCc1ccc(Nc2ccc(OC(F)(F)F)cc2)cc1` [compound 175, 7-Chloro-2-ethyl-N-(4-(4-(trifluoromethoxy)phenylamino)benzyl)imidazo[1,2-a]pyridine-3-carboxamide] showed an IC50 of 1 to 20 µM.

In turn, `CCc1nc2cc(Cl)ccn2c1C(=O)NCc1ccc(N2CCC(COC(F)F)CC2)cc1` [compound 295, 7-Chloro-N-(4-(4-((difluoromethoxy)methyl)piperidin-1-yl)benzyl)-2-ethylimidazo[1,2-a]pyridine-3-carboxamide] registered an IC50 greater than 20 µM.
